Experimental findings from patent US9611268B2, “Modulators of toll-like receptor 7” (Gilead Sciences, Inc., priority 2007, dated 2017) are described below.

Structures are written as SMILES. Bounds are passed on as bounds.

This assay deals with human Peripheral Blood Mononuclear Cell (PMBC). Briefly: PBMC Assay, cytokine stimulation (IFNα). The format is cell-based. The following applies: concentration at which the compound stimulated maximum IFN α production, 24 hours, read-out: IFN ECmax values. The procedure: Assays were conducted to determine cytokine stimulation at 24 hours from human Peripheral Blood Mononuclear Cell (PMBC) using the compounds of the present invention. The assays were run in duplicate, with 8-point, half-log dilution curves. The compounds of the present invention were diluted from […] DMSO solution. Cell supernatants are assayed directly for IFNα and 1:10 dilution for TNFα. The assays were performed in a similar fashion as described in Bioorg. Med. Chem. Lett. 16, 4559, (2006). Specifically, cryo-preserved PBMCs were thawed and seeded 96 well plates with 750,000 cells/well in 190 μL/well cell media. The PBMCs were then incubated for 1 hour at 37° C. at 5% CO2. Then, the compounds of the present invention were added in 10 μL cell media at 8 point, half-log dilution titration. The plates were incubated at 37° C. and 5% CO2 for 24 hours and then spinned at 1200 rpm for 10 min, which was followed by collecting supernatant and storing the same at −80° C. Cytokine secretion was assayed with Luminex and Upstate multi-plex kits, using a Luminex analysis instrument. IFN ECmax value for a compound was the concentration at which the compound stimulated maximum IFN α production as determined using the assay method above.
Take `COCCOc1nc(N)c2nc(O)n(Cc3cccc(CN4CCCC4)c3)c2n1` [Example A, 6-Amino-2-(2-methoxy-ethoxy)-9-(3-pyrrolidin-1-ylmethyl-benzyl)-9H-purin-8-ol]: the EC (max) was under 0.005 µM.
Then `COCCOc1nc(N)c2nc(O)n(Cc3cccc(CN4CC(C)CC(C)C4)c3)c2n1` (stereo not shown) [Example F, 6-Amino-9-[3-(3,5-dimethyl-piperidin-1-ylmethyl)-benzyl]-2-(2-methoxy-ethoxy)-9H-purin-8-ol], with under 0.005 µM.
With `COCCOc1nc(N)c2nc(O)n(Cc3cccc(CN4CCCCC4)c3)c2n1` [Example J, 6-Amino-2-(2-methoxy-ethoxy)-9-(3-piperidin-1-ylmethyl-benzyl)-9H-purin-8-ol], the EC (max) is under 0.005 µM.
Then `Nc1nc(OCC2CC2)nc2c1nc(O)n2Cc1cccc(CN2CCCC2)c1` [Example AW], with under 0.005 µM.
Then `Nc1nc(OC2CCCC2)nc2c1nc(O)n2Cc1cccc(CN2CCCC2)c1` [Example BM], with under 0.005 µM.
Then `Nc1nc(OCC2CCC2)nc2c1nc(O)n2Cc1cccc(CN2CCCC2)c1` [Example AV], with under 0.005 µM; and `COCCOc1nc(N)c2nc(O)n(Cc3cccc(CNCC4CCCCC4)c3)c2n1` [Example AZ], with under 0.005 µM.
On to `Nc1nc(OCCC2CC2)nc2c1nc(O)n2Cc1cccc(CN2CCCC2)c1` [Example AU], for which the EC (max) was under 0.005 µM.
Then `COCCOc1nc(N)c2nc(O)n(Cc3cc(CN4CCCCC4)cc(C(F)(F)F)c3)c2n1` [Example AS], with under 0.005 µM.
`COCCOc1nc(N)c2nc(O)n(Cc3cc(CN4CCCC4)cc(C(F)(F)F)c3)c2n1` [Example AQ]: the EC (max) was under 0.005 µM.
Then `COCCOc1nc(N)c2nc(OC(=O)OC(C)C)n(Cc3cccc(CN4CCCC4)c3)c2n1` [Example R, 9-(3-(pyrrolidin-1-ylmethyl)benzyl)-6-amino-2-(2-methoxyethoxy)-9H-purin-8-yl isopropyl carbonate], with under 0.005 µM; and `Nc1nc(OCCC(F)(F)F)nc2c1nc(O)n2Cc1cccc(CN2CCCC2)c1` [Example BH], with under 0.005 µM; and `CCCCOc1nc(N)c2nc(O)n(Cc3cccc(CN4CCC4)c3)c2n1` [Example BE], with under 0.005 µM.
Take `COCCOc1nc(N)c2nc(O)n(Cc3cccc(CN4CCN(C)CC4)c3)c2n1` [Example C, 6-Amino-2-(2-methoxy-ethoxy)-9-[3-(4-methyl-piperazin-1-ylmethyl)-benzyl]-9H-purin-8-ol]: the EC (max) is under 0.005 µM.
Then `COCCOc1nc(N)c2nc(O)n(Cc3cccc(CNCC4CC4)c3)c2n1` [Example D, 6-Amino-9-{3-[(cyclopropylmethyl-amino)-methyl]-benzyl}-2-(2-methoxy-ethoxy)-9H-purin-8-ol], with under 0.005 µM.
Then `COCCOc1nc(N)c2nc(O)n(Cc3cccc(CN4CCC4)c3)c2n1` [Example N, 9-(3-(azetidin-1-ylmethyl)benzyl)-6-amino-2-(2-methoxyethoxy)-9H-purin-8-ol], with under 0.005 µM.
